Where “and” joins values, the source holds several entries; their conditions need not be identical. Equal entries are not always repeated. Where two headings read alike, the source gives them in different places.
Legend:
[1] = system: MUTZ-3 cells; conditions: for SVM DV: human
Description: (§1) The SVM model had been developed for binary classifications (sensitizer versus non-sensitizer).

[2] = system: MUTZ-3 cells
[3] = system: human skin; conditions: cited from earlier work
[4] = cited from earlier work; for binary class (HP*): Table 1, based on [41] where available, HP 1-4=S, 5-6=NS, otherwise according to CLP; for binary class: Table 4
[5] = system: MUTZ-3 cells; remark: listed apart in the source
[6] = system: MUTZ-3 cells; assay: Cytotoxicity / viability by flow cytometry (propidium iodide); conditions: Table 1, 24 hours exposure
[7] = system: MUTZ-3 cells; assay: GARD random forest model for prediction of CLP categories (52 transcripts, Example A); conditions: for predicted CLP: Suppl. Table 1, separate replicates in the test set; for GARD predicted CLP: Table 6, independent test set, majority voting across replicates
[8] = system: MUTZ-3 cells; assay: GARD binary classification (SVM on GARD prediction signature, 200 transcripts); conditions: Table 1; sensitizer if median calibrated SVM DV of replicates > 0
Description: as §1

CC(C=O)Cc1ccc(C(C)(C)C)cc1 (stereo not shown) [lilial]
GARD binary prediction [1]: S | cytotox [2]: yes | HP [3]: 4 | binary class (HP*) [4]: S | binary class [4]: sens

CCCCOCC1CO1 (stereo not shown) [butyl glycidyl ether]
binary classification according to the established GARD model [1]: misclassified | CLP category predicted by the random forest model ([5]; human, 24 h): 1A | GARD predicted CLP ([5]; human, 24 h): 1A | cytotox [2]: yes | HP [3]: 3 | Human potency [41] [3]: 3 | human potency category [3]: 3

C=CCc1ccc(O)c(OC)c1 [eugenol]
SVM DV ([1]; 24 h): 1,02 | HP [3]: 3 | Human potency [3]: 3

CCOc1cc(C=O)ccc1O [ethyl vanillin]
GARD predicted CLP [5]: no cat | predicted CLP [5]: no cat | predicted CLP ([5]; human, 24 h): 1B

Nc1ccccc1 [aniline]
binary classification according to the established GARD model [1]: misclassified | cytotox [2]: no | HP [3]: 4

NC[C@H]1O[C@H](O[C@H]2[C@H](O)[C@@H](O[C@H]3O[C@H](CO)[C@@H](O)[C@H](N)[C@H]3O)[C@H](N)C[C@@H]2N)[C@H](O)[C@@H](O)[C@@H]1O [kanamycin A]
cytotox [2]: no | binary class [4]: non-sens

O=C1C=CC(=O)C=C1 [p-benzoquinone]
GARD binary prediction [1]: S | cytotox [6]: yes | predicted CLP [7]: 1A | GARD predicted CLP [7]: 1A

CC(C)(O)CCCC1=CCC(C=O)CC1 (stereo not shown) [lyral]
human potency category ([3]; Basketter et al. [41]): 2 | HP ([3]; Table 4): 2 | Human potency [41] ([3]; Table 6, test set): 2 | binary class (HP*) [4]: S | binary class [4]: sens | cytotox [6]: yes | GARD binary prediction [8]: S | predicted CLP [7]: 1A (2×) and 1B | GARD predicted CLP [7]: 1A | CLP category predicted by the random forest model ([7]; test set, majority votes): 1A

C=O [formaldehyde]
SVM DV [1]: 2,32 | HP [3]: 2 | Human potency [3]: 2

O=CCCCC=O [glutaraldehyde]
HP ([3]; Table 4): 2 | Human potency [41] ([3]; Table 6, test set): 2 | binary class (HP*) [4]: S | binary class [4]: sens | cytotox [6]: yes | GARD binary prediction [8]: S | predicted CLP [7]: 1A | GARD predicted CLP [7]: 1A

O=C(O)c1ccccc1 [benzoic acid]
cytotox [2]: no | binary class [4]: non-sens | predicted CLP [7]: no cat | GARD predicted CLP [7]: no cat

CC(C)(c1ccc(OCC2CO2)cc1)c1ccc(OCC2CO2)cc1 (stereo not shown) [bisphenol A-diglycidyl ether]
cytotox [2]: yes | HP [3]: 3 | Human potency [41] [3]: 3 | GARD binary prediction [8]: S | predicted CLP [7]: 1A | GARD predicted CLP [7]: 1A

c1ccncc1 [pyridine]
cytotox [2]: no | HP [3]: 5

CC=Cc1ccc(OC)cc1 [anethole]
GARD predicted CLP ([5]; human, 24 h): 1B | predicted CLP ([5]; human, 24 h): 1B | HP [3]: 5 | Human potency [41] [3]: 5

CCCCCCCCCCCCOS(=O)(=O)[O-].[Na+] [sodium dodecyl sulfate]
SVM DV [1]: -1,52 | HP [3]: 6 | Human potency [3]: 6

Oc1ccccc1 [phenol]
SVM DV [1]: -1,08 | HP [3]: 6 | Human potency [3]: 6

Source: patent EP3417074B1, “ANALYTICAL METHODS AND ARRAYS FOR USE IN THE SAME” (SenzaGen AB, priority 2016, dated 2017)
